pIC50: −log10 of the molar value.
Biological target: KRasG12C (M1-K169, biotinylated on the N-terminus) (Homo sapiens (Human), UniProt P01116, G12C)
Assay: Covalent competition assay: scintillation proximity assay (SPA) quantifying covalent modification of KRASG12C
Assay type: binding
Details: competition with radiolabeled covalent probe (Compound B/Compound A), 2 hours incubation, 10 nM KRasG12C
In short: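 Test compounds compete with a radiolabeled covalent probe for modification of N-terminally biotinylated KRasG12C(M1-K169):GDP, final 10 nM protein, 25 nM radio-ligand, 475 nM unlabelled ligand, 2 h with agitation in 20 mM Tris-HCl pH 7.5, 150 mM NaCl, 0.1 mM MgCl2, 0.01% Tween-20.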

Row | SMILES | pIC50
1 | C=CC(=O)N1CC2(CC(n3nc(N4CCN(C(=O)N(C)C)CC4(C)C)c(-c4c(Cl)c(C)cc5[nH]ncc45)c3C)C2)C1 (single isomer, unassigned) [Example 129b, 4-(1-(2-acryloyl-2-azaspiro[3.3]heptan-6-yl)-4-(5-chloro-6-methyl-1H-indazol-4-yl)-5-methyl-1H-pyrazol-3-yl)-N,N,3,3-tetramethylpiperazine-1-carboxamide] | 5.92
2 | C=CC(=O)N1CC2(CCC(n3nc(N4CCN(C(C)=O)CC4)c(-c4c(Cl)ccc5[nH]ncc45)c3C)C2)C1 (single isomer, unassigned) [Example 53a, 1-(6-(3-(4-acetylpiperazin-1-yl)-4-(5-chloro-1H-indazol-4-yl)-5-methyl-1H-pyrazol-1-yl)-2-azaspiro[3.4]octan-2-yl)prop-2-en-1-one] | 5.31
3 | C=CC(=O)N1CC2(CC(n3nc(N4CC[C@@H](CN5CC6(CCS(=O)(=O)C6)C5)CC4(C)C)c(-c4c(Cl)c(Cl)cc5[nH]ncc45)c3C)C2)C1 (single isomer, unassigned) [Example 254a] | 5.59
4 | C=CC(=O)N1CC2(CC(n3nc(N4CCC(CN5CCS(=O)(=O)CC5)CC4(C)C)c(-c4c(Cl)c(Cl)cc5[nH]ncc45)c3C)C2)C1 (single isomer, unassigned) [Example 235b, 1-(6-(4-(5,6-dichloro-1H-indazol-4-yl)-3-(4-((1,1-dioxidothiomorpholino)methyl)-2,2-dimethylpiperidin-1-yl)-5-methyl-1H-pyrazol-1-yl)-2-azaspiro[3.3]heptan-2-yl)prop-2-en-1-one] | 8.00
5 | C=CC(=O)N1CC2(CC(n3nc(N4CCN(C5COC5)CC45CCOC5)c(-c4c(Cl)c(C)cc5[nH]ncc45)c3C)C2)C1 (single isomer, unassigned) [Example 142a, 1-(6-(4-(5-chloro-6-methyl-1H-indazol-4-yl)-5-methyl-3-(9-(oxetan-3-yl)-2-oxa-6,9-diazaspiro[4.5]decan-6-yl)-1H-pyrazol-1-yl)-2-azaspiro[3.3]heptan-2-yl)prop-2-en-1-one] | 6.69
6 | C=CC(=O)N1CC2(CC(n3nc(N4CCN(C(=O)N(C)C)CC4(C)C)c(-c4c(Cl)c(C)cc5[nH]ncc45)c3C)C2)C1 (single isomer, unassigned) [Example 129a, 4-(1-(2-acryloyl-2-azaspiro[3.3]heptan-6-yl)-4-(5-chloro-6-methyl-1H-indazol-4-yl)-5-methyl-1H-pyrazol-3-yl)-N,N,3,3-tetramethylpiperazine-1-carboxamide] | 7.49
7 | C=CC(=O)N1CC2(CC(n3nc(N4CC[C@@H](CN5CC6CC(C5)N6C(C)=O)CC4(C)C)c(-c4c(Cl)c(Cl)cc5[nH]ncc45)c3C)C2)C1 (single isomer, unassigned) [Example 301b] | > 8.30
8 | C=CC(=O)N1CC2(CC(n3nc(N4CCN(C5COCCOC5)C[C@]4(C)CC)c(-c4c(Cl)c(C)cc5[nH]ncc45)c3C)C2)C1 (single isomer, unassigned) [Example 159a] | 6.15
9 | C=CC(=O)N1CC2(CC(n3nc(N4CC[C@@H](CN5CCN6C[C@@H](O)C[C@@H]6C5)CC4(C)C)c(-c4c(Cl)c(Cl)cc5[nH]ncc45)c3C)C2)C1 (single isomer, unassigned) [Example 287a] | 6.51
10 | C=CC(=O)N1CC2(CC(n3nc(N4CCN(C(C)=O)C[C@@H]4CC)c(-c4c(Cl)c(C)cc5[nH]ncc45)c3C)C2)C1 (single isomer, unassigned) [Example 94b] | 7.19
11 | C=CC(=O)N1CC2(CC(n3nc(N4CCN(C[C@@H]5COCCO5)C[C@]4(C)COC)c(-c4c(Cl)c(Cl)cc5[nH]ncc45)c3C)C2)C1 (single isomer, unassigned) [Example 182b] | 8.10
12 | C=CC(=O)N1CC2(CC(n3nc(N4CCN(CC(C)(C)O)C[C@@]4(C)CC)c(-c4c(Cl)c(C)cc5[nH]ncc45)c3C)C2)C1 (single isomer, unassigned) [Example 164b] | 7.25
13 | C=CC(=O)N1CC2(CC(n3nc(N4CCN(C(C)=O)CC4)c(-c4c(Cl)ccc5[nH]ncc45)c3C)C2)C1C (single isomer, unassigned) [Example 198b, 1-(6-(3-(4-acetylpiperazin-1-yl)-4-(5-chloro-1H-indazol-4-yl)-5-methyl-1H-pyrazol-1-yl)-1-methyl-2-azaspiro[3.3]heptan-2-yl)prop-2-en-1-one] | < 4.30
14 | C=CC(=O)N1CC2(CC(n3nc(N4CC[C@@H](CN5CCN6C(=O)N(C)CC6C5)CC4(C)C)c(-c4c(Cl)c(Cl)cc5[nH]ncc45)c3C)C2)C1 (single isomer, unassigned) [Example 263b] | 8.10
15 | C=CC(=O)N1CC2(CC(n3nc(N4CCCC4(C)C)c(-c4c(Cl)c(C)cc5[nH]ncc45)c3C)C2)C1 (single isomer, unassigned) [Example 88b, 1-(6-(4-(5-chloro-6-methyl-1H-indazol-4-yl)-3-(2,2-dimethylpyrrolidin-1-yl)-5-methyl-1H-pyrazol-1-yl)-2-azaspiro[3.3]heptan-2-yl)prop-2-en-1-one] | 6.33
16 | C=CC(=O)N1CC2(CC(n3nc(N4CCN(C(=O)OC)CC4(C)C)c(-c4c(Cl)c(C)cc5[nH]ncc45)c3C)C2)C1 (single isomer, unassigned) [Example 125a, methyl 4-(1-(2-acryloyl-2-azaspiro[3.3]heptan-6-yl)-4-(5-chloro-6-methyl-1H-indazol-4-yl)-5-methyl-1H-pyrazol-3-yl)-3,3-dimethylpiperazine-1-carboxylate] | 5.66

Results, then the molecule that gave them:

Row | pIC50 | SMILES
17 | 5.78 | C=CC(=O)N1CC2(CC(n3nc(N4CC[C@@H](CN5CCN(C6COC6)C6COCC65)CC4(C)C)c(-c4c(Cl)c(Cl)cc5[nH]ncc45)c3C)C2)C1 (single isomer, unassigned) [Example 281a, 1-(6-(4-(5,6-dichloro-1H-indazol-4-yl)-3-((R)-2,2-dimethyl-4-(((4aS*,7aR*)-4-(oxetan-3-yl)hexahydrofuro[3,4-b]pyrazin-1(2H)-yl)methyl)piperidin-1-yl)-5-methyl-1H-pyrazol-1-yl)-2-azaspiro[3.3]heptan-2-yl)prop-2-en-1-one]
18 | 6.52 | C=CC(=O)N1CC2(CC(n3nc(N4CCN(C(C)=O)C5(CCC5)C4)c(-c4c(Cl)c(C)cc5[nH]ncc45)c3C)C2)C1 (single isomer, unassigned) [Example 20a, 1-(6-(3-(5-acetyl-5,8-diazaspiro[3.5]nonan-8-yl)-4-(5-chloro-6-methyl-1H-indazol-4-yl)-5-methyl-1H-pyrazol-1-yl)-2-azaspiro[3.3]heptan-2-yl)prop-2-en-1-one]
19 | 5.42 | C=CC(=O)N1CC2(CC(n3nc(N4CC[C@@H](CN5CCN(C6COC6)CC5)CC4(C)C)c(-c4c(Cl)c(Cl)cc5[nH]ncc45)c3C)C2)C1 (single isomer, unassigned) [Example 243a]
20 | 5.40 | C=CC(=O)N1CC2(CC(n3nc(N4CCN(C5COC5)C[C@]4(C)CC)c(-c4c(Cl)c(Cl)cc5[nH]ncc45)c3C)C2)C1 (single isomer, unassigned) [Example 155a]
21 | 4.30 | C=CC(=O)N1CC2(CC(n3nc(N4CCn5nccc5C4)c(-c4c(Cl)c(C)cc5[nH]ncc45)c3C)C2)C1 (single isomer, unassigned) [Example 10a, 1-(6-(4-(5-Chloro-6-methyl-1H-indazol-4-yl)-3-(6,7-dihydropyrazolo[1,5-a]pyrazin-5(4H)-yl)-5-methyl-1H-pyrazol-1-yl)-2-azaspiro[3.3]heptan-2-yl)prop-2-en-1-one]
22 | < 5.30 | C=CC(=O)N1CC2(CC(n3nc(N4CCN(C5COC5)CC45CCC5)c(-c4c(C)c(O)cc(C)c4Cl)c3C)C2)C1 (single isomer, unassigned) [Example 49b, 1-(6-(4-(2-chloro-5-hydroxy-3,6-dimethylphenyl)-5-methyl-3-(8-(oxetan-3-yl)-5,8-diazaspiro[3.5]nonan-5-yl)-1H-pyrazol-1-yl)-2-azaspiro[3.3]heptan-2-yl)prop-2-en-1-one]
23 | < 5.30 | C=CC(=O)N1CC2(CC(n3nc(N4CCN(C5CCOCC5)CC4(C)C)c(-c4c(Cl)c(C)cc5[nH]ncc45)c3C)C2)C1 (single isomer, unassigned) [Example 134a, 1-(6-(4-(5-chloro-6-methyl-1H-indazol-4-yl)-3-(2,2-dimethyl-4-(tetrahydro-2H-pyran-4-yl)piperazin-1-yl)-5-methyl-1H-pyrazol-1-yl)-2-azaspiro[3.3]heptan-2-yl)prop-2-en-1-one]
24 | 6.10 | C=CC(=O)N1CC2(CC(n3nc(N4CC[C@@H](CN5CC(O)C(OC)C5)CC4(C)C)c(-c4c(Cl)c(Cl)cc5[nH]ncc45)c3C)C2)C1 (single isomer, unassigned) [Example 274a, 1-(6-(4-(5,6-dichloro-1H-indazol-4-yl)-3-((R)-4-(((3S*,4S*)-3-hydroxy-4-methoxypyrrolidin-1-yl)methyl)-2,2-dimethylpiperidin-1-yl)-5-methyl-1H-pyrazol-1-yl)-2-azaspiro[3.3]heptan-2-yl)prop-2-en-1-one]
25 | 7.59 | C=CC(=O)N1CC2(CC(n3nc(N4CCC(N5C[C@@H]6C[C@H]5CO6)CC4(C)C)c(-c4c(Cl)c(C)cc5[nH]ncc45)c3C)C2)C1 (single isomer, unassigned) [Example 83b]
26 | 6.50 | C=CC(=O)N1CC2(CC(n3nc(N4CCCCC4(C)C)c(-c4c(Cl)c(C)cc5[nH]ncc45)c3C)C2)C1 (single isomer, unassigned) [Example 103b, 1-(6-(4-(5-chloro-6-methyl-1H-indazol-4-yl)-3-(2,2-dimethylpiperidin-1-yl)-5-methyl-1H-pyrazol-1-yl)-2-azaspiro[3.3]heptan-2-yl)prop-2-en-1-one]
27 | < 4.30 | C=CC(=O)N1CC2(CC(n3nc(N4CCn5nccc5C4C)c(-c4c(Cl)c(C)cc5[nH]ncc45)c3C)C2)C1 (single isomer, unassigned) [Example 42a, 1-(6-(4-(5-chloro-6-methyl-1H-indazol-4-yl)-5-methyl-3-(4-methyl-6,7-dihydropyrazolo[1,5-a]pyrazin-5(4H)-yl)-1H-pyrazol-1-yl)-2-azaspiro[3.3]heptan-2-yl)prop-2-en-1-one]

— patent US20240317721A1, “PYRAZOLYL DERIVATIVES AS INHIBITORS OF THE KRAS MUTANT PROTEIN” (NOVARTIS AG, priority 2021, published 2024)
